Measured values: PubChem BioAssay AID179 (DTP/NCI, 2004)
Active and inactive are the calls of the source.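 The calls were made as follows: active = compounds giving half or more protection of infected cells from virus-caused growth loss, again on retest; inactive = the rest.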

Test system: CEM cells HIV-1 protection, formazan growth assay
Assay: NCI AIDS Antiviral Assay
Details: for IC50: measured here: growth of uninfected CEM cells
Method in brief: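 Steps: treat uninfected and HIV-1-infected human CEM cells at five drug levels; quantify growth by soluble formazan; retest any compound reaching 50% protection; classify actives from the retest.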

CCCCN1C(=O)[C@](O)(NC(C)=O)[C@H]1COC(C)(C)C
EC50: > 43.7 µM | IC50: > 43.7 µM

COC(=O)OCC1C=CC(n2cnc3c(Cl)ncnc32)CC1 (stereo unspecified)
EC50: > 200 µM | IC50: 11.5 µM

O=C1CCCCC(=O)OC2(CCCCC2=O)CC1 (stereo unspecified)
EC50: > 200 µM | IC50: > 200 µM

Cn1c(=O)c2ccccc2c2nc3ccccc3nc21
outcome: inactive

CCOC(=O)/C(=C/c1ccc(C)cc1)P(=O)(OCC)OCC
EC50: 562 µM | IC50: 631 µM

Oc1cc(Cl)cc2cccnc12
outcome: inactive

Cn1c(=O)c2nncnc2n(C)c1=O
EC50: > 200 µM | IC50: > 200 µM

COc1cc(OC)c2c(c1)OC1OC(=O)CC21 (stereo unspecified)
EC50: > 209 µM | IC50: > 209 µM

N#Cc1nc(CCN2C(=O)c3ccccc3C2=O)oc1N
EC50: > 200 µM | IC50: > 200 µM

Nc1c2ccccc2nc2ccc3c(=O)cc(-c4ccccc4)oc3c12
EC50: > 20 µM | IC50: 0.912 µM

CCOC(=O)/C(C#N)=C/c1ccc(OC)cc1
EC50: > 155 µM | IC50: > 155 µM

C[N+](C)(CCCCCC[N+](C)(C)C1c2ccccc2-c2ccccc21)C1c2ccccc2-c2ccccc21
EC50: > 200 µM | IC50: 182 µM

O=S(=O)(SC(S(=O)(=O)c1ccccc1)S(=O)(=O)c1ccccc1)c1ccccc1
EC50: > 537 µM | IC50: 355 µM

N#C/C(=C(/C#N)c1ccccc1)c1ccccc1
EC50: > 200 µM | IC50: > 200 µM

S=C(Nc1ccc2cn[nH]c2c1)Nc1ccc2cn[nH]c2c1
EC50: > 309 µM | IC50: 129 µM

CCOC(=O)NC(=O)c1cn(C2CCCCC2)c(=O)n(C)c1=O
EC50: > 81.3 µM | IC50: > 81.3 µM

CO/C(N)=C(\C#N)N=Cc1cccs1
EC50: > 200 µM | IC50: 117 µM

COCOc1c(OC)c(C2(O)C(=O)N(C)c3ccccc32)c(OCOC)c(OC)c1C1(O)C(=O)N(C)c2ccccc21 (stereo unspecified)
EC50: > 200 µM | IC50: 42.7 µM

O=S(=O)(NCCO)c1cc[c]([Sb](=[O])([OH])[OH])cc1
EC50: > 200 µM | IC50: > 200 µM

O=c1cc(C(F)(F)F)c2cc3c4c(c2o1)CCCN4CCC3
EC50: > 4.68 µM | IC50: > 4.68 µM

Cc1c(O)c2ccccc2c2c1sc(NCCCN(CCO)CCO)[n+]2C
EC50: > 200 µM | IC50: 11.2 µM

NNC(=O)NNC(=O)NN
EC50: > 200 µM | IC50: > 200 µM

O=c1cccc2n1C[C@H]1C[C@@H]2CN2CCCC[C@H]12
EC50: > 200 µM | IC50: > 200 µM

Nc1ccc(-c2cc(C(=O)Nc3nccs3)[nH]c(=S)n2)cc1
EC50: > 759 µM | IC50: 407 µM

NNc1nncc2n[nH]nc12
EC50: > 200 µM | IC50: > 200 µM

CC1(C)C2CCC(CN=C(N)CSS(=O)(=O)O)C1C2 (stereo unspecified)
EC50: > 200 µM | IC50: 33.1 µM

Cc1c(COC(=O)NC(C)C)c(COC(=O)NC(C)C)c2n1CSC2
EC50: > 51.3 µM | IC50: 2.4 µM

Cc1cccc(C=C2C(=O)NC(=O)NC2=O)c1
EC50: > 407 µM | IC50: > 407 µM

CC1OC(OC2C(O[C@H]3CC[C@@]4(C)[C@@H](CC[C@@H]5[C@@H]4CC[C@]4(C)[C@@H]6[C@H](C[C@@H]54)O[C@]4(CC[C@@H](C)CO4)[C@H]6C)C3)OC(CO)C(OC3OC(CO)C(O)C(OC4OCC(O)C(O)C4O)C3OC3OCC(O)C(O)C3O)C2O)C(O)C(O)C1O (stereo partly specified)
EC50: > 2 µM | IC50: 0.832 µM

Cc1ccc(N(C)S(=O)(=O)c2ccc([N+](=O)[O-])cc2)cc1
EC50: > 200 µM | IC50: 178 µM

CCOC(=O)C(NC(=O)CC)(Nc1ccccc1F)C(F)(F)F (stereo unspecified)
EC50: > 200 µM | IC50: > 200 µM

OC1(c2ccccc2)CC2CCC(C1)N2CCc1ccccc1 (stereo unspecified)
EC50: > 200 µM | IC50: 102 µM

Cc1cccc(NC(=O)CC2C(=O)Nc3ccccc3S2(=O)=O)c1C (stereo unspecified)
EC50: > 5.62 µM | IC50: > 5.62 µM

CCOC(=O)C1(C#N)C(c2ccccc2)CC(O)(c2ccc(OC)cc2)C(C(=O)c2ccc(OC)cc2)C1c1ccccc1 (stereo unspecified)
EC50: > 12.3 µM | IC50: > 12.3 µM

COc1cc2c(c([N+](=O)[O-])c1)NC(=O)CS2
EC50: > 200 µM | IC50: 79.4 µM

Cc1nc(N)c(N2CCN(S(=O)(=O)N(Cc3ccccc3)Cc3ccccc3)CC2)c(=O)[nH]1
EC50: > 195 µM | IC50: 120 µM

CCCCCCCCCCCCOCC1(COCCCCCCCCCCCC)COC(c2ccc(N)cc2)OC1
EC50: > 200 µM | IC50: > 200 µM

CCCNC(=O)Sc1ccccc1C(=O)N[C@H](C)C(N)=O
EC50: > 4.68 µM

O=C(/C=C/c1ccc(O)c(O)c1)Oc1ccccc1
EC50: > 200 µM | IC50: 9.33 µM

CCOP(=O)(OCC)OCCOCCOP(=O)(OCC)OCC
EC50: > 200 µM | IC50: > 200 µM

CN1C(=O)CC2C(=O)N(Cc3ccccc3)C(=O)C2C1=O (stereo unspecified)
EC50: > 347 µM | IC50: > 347 µM

Nc1nc2c(ncn2C2CC(CO)C(CO)C2)c(=O)[nH]1 (stereo unspecified)
EC50: > 224 µM | IC50: > 224 µM
